Test system: 857933-349-R-J2-PDC complex spheroid viability
Assay: Anticancer human tumor 857933-349-R-J2-PDC patient-derived colon adenocarcinoma cell line growth inhibition [POLQ]
Details: for IC50: curve of first compound; for viability, T/C: stronger effect = lower value
How it was run: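 Three-cell-type spheroids modelling solid tumor plus stroma served as the readout system; POL inhibitors were tested individually and in combination, concentration ranges set by clinical Cmax where known.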

[1] = second compound 0.0316 µM, first compound 0.0316 µM
[2] = second compound 0.0316 µM, first compound 0.1 µM
[3] = second compound 0.0316 µM, first compound 0.316 µM
[4] = second compound 0.0316 µM, first compound 1 µM
[5] = second compound 0.0316 µM, first compound 3.16 µM
[6] = second compound 0.0316 µM, first compound 10 µM
[7] = second compound 0.1 µM, first compound 0.0316 µM
[8] = second compound 0.1 µM, first compound 0.1 µM
[9] = second compound 0.1 µM, first compound 0.316 µM
[10] = second compound 0.1 µM, first compound 1 µM
[11] = second compound 0.1 µM, first compound 3.16 µM
[12] = second compound 0.1 µM, first compound 10 µM
[13] = second compound 0.316 µM, first compound 0.0316 µM
[14] = second compound 0.316 µM, first compound 0.1 µM
[15] = second compound 0.316 µM, first compound 0.316 µM
[16] = second compound 0.316 µM, first compound 1 µM
[17] = second compound 0.316 µM, first compound 3.16 µM
[18] = second compound 0.316 µM, first compound 10 µM
[19] = second compound 1 µM, first compound 0.0316 µM
[20] = second compound 1 µM, first compound 0.1 µM
[21] = second compound 1 µM, first compound 0.316 µM
[22] = second compound 1 µM, first compound 1 µM
[23] = second compound 1 µM, first compound 3.16 µM
[24] = second compound 1 µM, first compound 10 µM
[25] = second compound 3.16 µM, first compound 0.0316 µM
[26] = second compound 3.16 µM, first compound 0.1 µM
[27] = second compound 3.16 µM, first compound 0.316 µM
[28] = second compound 3.16 µM, first compound 1 µM
[29] = second compound 3.16 µM, first compound 3.16 µM
[30] = second compound 3.16 µM, first compound 10 µM
[31] = second compound 10 µM, first compound 0.0316 µM
[32] = second compound 10 µM, first compound 0.1 µM
[33] = second compound 10 µM, first compound 0.316 µM
[34] = second compound 10 µM, first compound 1 µM
[35] = second compound 10 µM, first compound 3.16 µM
[36] = second compound 10 µM, first compound 10 µM
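Further: spheroids exposed to compounds for seven days before readout.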

Compound: CC(C)n1c(=O)n(C)c2cnc3cc(F)c(-c4ccc(OCCCN5CCCCC5)nc4)cc3c21 + Cc1cccc(N(C)C(=O)C2C(O)CCN2c2nc(C)cc(C(F)(F)F)c2C#N)c1
- IC50 (second compound 0.0316 µM): > 10 µM
- IC50 (second compound 0.1 µM): > 10 µM
- IC50 (second compound 0.316 µM): > 10 µM
- IC50 (second compound 1 µM): > 10 µM
- IC50 (second compound 3.16 µM): > 10 µM
- IC50 (second compound 10 µM): > 10 µM
- viability, T/C [1]: 106%
- viability, T/C [2]: 78.1%
- viability, T/C [3]: 90.2%
- viability, T/C [4]: 113%
- viability, T/C [5]: 107%
- viability, T/C [6]: 69.8%
- viability, T/C [7]: 97.7%
- viability, T/C [8]: 107%
- viability, T/C [9]: 98.9%
- viability, T/C [10]: 105%
- viability, T/C [11]: 87%
- viability, T/C [12]: 68.5%
- viability, T/C [13]: 97.2%
- viability, T/C [14]: 94.3%
- viability, T/C [15]: 104%
- viability, T/C [16]: 94.9%
- viability, T/C [17]: 105%
- viability, T/C [18]: 88%
- viability, T/C [19]: 80.7%
- viability, T/C [20]: 73.8%
- viability, T/C [21]: 92.6%
- viability, T/C [22]: 110%
- viability, T/C [23]: 114%
- viability, T/C [24]: 66.9%
- viability, T/C [25]: 83.6%
- viability, T/C [26]: 89.2%
- viability, T/C [27]: 116%
- viability, T/C [28]: 79.3%
- viability, T/C [29]: 102%
- viability, T/C [30]: 75%
- viability, T/C [31]: 73.2%
- viability, T/C [32]: 65.9%
- viability, T/C [33]: 87.9%
- viability, T/C [34]: 97.3%
- viability, T/C [35]: 106%
- viability, T/C [36]: 64.5%

Compound: Nc1ccn(C2OC(CO)C(O)C2(F)F)c(=O)n1 (stereo unspecified) + COC1C(OC(N)=O)C(O)C(Oc2ccc3c(O)c(NC(=O)c4ccc(O)c(CC=C(C)C)c4)c(=O)oc3c2C)OC1(C)C
- IC50 (second compound 0.0316 µM): 0.159 µM
- IC50 (second compound 0.1 µM): 0.152 µM
- IC50 (second compound 0.316 µM): 0.148 µM
- IC50 (second compound 1 µM): 0.164 µM
- IC50 (second compound 3.16 µM): 0.138 µM
- IC50 (second compound 10 µM): 0.162 µM
- viability, T/C [1]: 68.6%
- viability, T/C [2]: 63.7%
- viability, T/C [3]: 30.3%
- viability, T/C [4]: 17.6%
- viability, T/C [5]: 12.9%
- viability, T/C [6]: 11.4%
- viability, T/C [7]: 91.6%
- viability, T/C [8]: 63.3%
- viability, T/C [9]: 26.3%
- viability, T/C [10]: 17.3%
- viability, T/C [11]: 11.3%
- viability, T/C [12]: 11.4%
- viability, T/C [13]: 67.3%
- viability, T/C [14]: 64.5%
- viability, T/C [15]: 22.4%
- viability, T/C [16]: 16.8%
- viability, T/C [17]: 13.5%
- viability, T/C [18]: 10.9%
- viability, T/C [19]: 74.1%
- viability, T/C [20]: 68.5%
- viability, T/C [21]: 25.5%
- viability, T/C [22]: 19.6%
- viability, T/C [23]: 14.5%
- viability, T/C [24]: 7.53%
- viability, T/C [25]: 82.1%
- viability, T/C [26]: 59.4%
- viability, T/C [27]: 25.8%
- viability, T/C [28]: 16.8%
- viability, T/C [29]: 12.8%
- viability, T/C [30]: 11.8%
- viability, T/C [31]: 77.7%
- viability, T/C [32]: 65.6%
- viability, T/C [33]: 28.2%
- viability, T/C [34]: 14.9%
- viability, T/C [35]: 16.3%
- viability, T/C [36]: 11.8%

Compound: CCc1c2c(nc3ccc(O)cc13)-c1cc3c(c(=O)n1C2)COC(=O)[C@]3(O)CC + COC1C(OC(N)=O)C(O)C(Oc2ccc3c(O)c(NC(=O)c4ccc(O)c(CC=C(C)C)c4)c(=O)oc3c2C)OC1(C)C
- IC50 (second compound 0.0316 µM): 0.0199 µM
- IC50 (second compound 0.1 µM): 0.0194 µM
- IC50 (second compound 0.316 µM): 0.0175 µM
- IC50 (second compound 1 µM): 0.0125 µM
- IC50 (second compound 3.16 µM): 0.0158 µM
- IC50 (second compound 10 µM): 0.00942 µM
- viability, T/C (second compound 0.0316 µM, first compound 0.00316 µM): 84.5%
- viability, T/C (second compound 0.0316 µM, first compound 0.01 µM): 71.7%
- viability, T/C [1]: 32.1%
- viability, T/C [2]: 25.3%
- viability, T/C [3]: 17.5%
- viability, T/C [4]: 5.52%
- viability, T/C (second compound 0.1 µM, first compound 0.00316 µM): 88.3%
- viability, T/C (second compound 0.1 µM, first compound 0.01 µM): 76.1%
- viability, T/C [7]: 29.7%
- viability, T/C [8]: 20.2%
- viability, T/C [9]: 14.1%
- viability, T/C [10]: 4.89%
- viability, T/C (second compound 0.316 µM, first compound 0.00316 µM): 92.3%
- viability, T/C (second compound 0.316 µM, first compound 0.01 µM): 71.7%
- viability, T/C [13]: 26.3%
- viability, T/C [14]: 17.3%
- viability, T/C [15]: 15.2%
- viability, T/C [16]: 5.5%
- viability, T/C (second compound 1 µM, first compound 0.00316 µM): 89%
- viability, T/C (second compound 1 µM, first compound 0.01 µM): 56.6%
- viability, T/C [19]: 22.9%
- viability, T/C [20]: 16.7%
- viability, T/C [21]: 16.2%
- viability, T/C [22]: 5.68%
- viability, T/C (second compound 3.16 µM, first compound 0.00316 µM): 84.8%
- viability, T/C (second compound 3.16 µM, first compound 0.01 µM): 62.8%
- viability, T/C [25]: 29.8%
- viability, T/C [26]: 22.4%
- viability, T/C [27]: 12.5%
- viability, T/C [28]: 6.77%
- viability, T/C (second compound 10 µM, first compound 0.00316 µM): 80.6%
- viability, T/C (second compound 10 µM, first compound 0.01 µM): 42.7%
- viability, T/C [31]: 35%
- viability, T/C [32]: 16.2%
- viability, T/C [33]: 12.2%
- viability, T/C [34]: 4.37%
